This is an account of results in the supplement of paper PMC10307832.

Assay in all cases: relative viability (nuclei count vs DMSO), 5 days (fraction); higher = more cells survive
Compound in the assay “Axitinib + Navitoclax”: CNC(=O)c1ccccc1Sc1ccc2c(/C=C/c3ccccn3)n[nH]c2c1 [Axitinib] + CC1(C)CCC(c2ccc(Cl)cc2)=C(CN2CCN(c3ccc(C(=O)NS(=O)(=O)c4ccc(N[C@H](CCN5CCOCC5)CSc5ccccc5)c(S(=O)(=O)C(F)(F)F)c4)cc3)CC2)C1 [Navitoclax] (partner 0.5 µM)
In outline: (§1)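 Dosing by pin tool came one day after lung cancer cell lines were seeded in 1536-well plates, using either one drug or a fixed anchor-drug dose plus five library-drug doses (not always all listed) in √10 steps. After 5 days, nuclei were counted on 4× images. Relative viability is treated-well nuclei count divided by vehicle-well nuclei count, and values are medians of duplicate plates.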

Compound in assay [1]: CC1=CC=C(C=C1)C(=O)CN2C3=C(CCCC3)SC2=N [Pifithrin_alpha] + Cc1nc(Nc2ncc(C(=O)Nc3c(C)cccc3Cl)s2)cc(N2CCN(CCO)CC2)n1 [Dasatinib] (partner 0.075 µM)
In outline: as §1

Compound in the assay “Axitinib + Palbociclib”: CNC(=O)c1ccccc1Sc1ccc2c(/C=C/c3ccccn3)n[nH]c2c1 [Axitinib] + CC(=O)c1c(C)c2cnc(Nc3ccc(N4CCNCC4)cn3)nc2n(C2CCCC2)c1=O [Palbociclib] (partner 0.5 µM)
In a few lines:
as §1

Compound in the assay “Bemcentinib + AZD7762”: Nc1nc(Nc2ccc3c(c2)CC[C@@H](N2CCCC2)CC3)nn1-c1cc2c(nn1)-c1ccccc1CCC2 [Bemcentinib] + NC(=O)Nc1cc(-c2cccc(F)c2)sc1C(=O)N[C@H]1CCCNC1 [AZD7762] (partner 0.2 µM)
In a few lines: as §1

In the case of EBC-1, the relative viability with Axitinib + Navitoclax (first compound 0.005 µM) was 0.468; with Axitinib + Navitoclax (first compound 0.01581 µM), 0.443; in the assay with Axitinib + Navitoclax (first compound 0.05 µM) it was 0.453; in the assay with Axitinib + Navitoclax (first compound 0.1581 µM), 0.509; with Axitinib + Navitoclax (first compound 0.5 µM), 0.554.
As for EKVX, the relative viability in assay [1] (first compound 3.162 µM) was found to be 0.461; in assay [1] (first compound 10 µM) it was 0.352; in assay [1] (first compound 31.62 µM) it was 0.404; in assay [1] (first compound 100 µM) it was 0.384; with Axitinib + Palbociclib (first compound 0.005 µM), 0.402; with Axitinib + Palbociclib (first compound 0.01581 µM), 0.368. Further, the relative viability with Axitinib + Palbociclib (first compound 0.05 µM) worked out at 0.433; in the assay with Axitinib + Palbociclib (first compound 0.1581 µM), 0.381; with Axitinib + Palbociclib (first compound 0.5 µM), 0.358; in the assay with Axitinib + Navitoclax (first compound 0.005 µM) it was 1.07; with Axitinib + Navitoclax (first compound 0.01581 µM) it was 0.962; with Axitinib + Navitoclax (first compound 0.05 µM) it was 0.823. Besides, the relative viability in the assay with Axitinib + Navitoclax (first compound 0.1581 µM) stood at 0.921; with Axitinib + Navitoclax (first compound 0.5 µM), 0.961; in the assay with Bemcentinib + AZD7762 (first compound 0.04 µM), 0.623; with Bemcentinib + AZD7762 (first compound 0.1265 µM), 0.719; with Bemcentinib + AZD7762 (first compound 0.4 µM), 0.759; with Bemcentinib + AZD7762 (first compound 1.265 µM) it was 0.723. Moreover, the relative viability with Bemcentinib + AZD7762 (first compound 4 µM) amounted to 0.717.
In the case of EMC-BAC-2, the relative viability in assay [1] (first compound 1 µM) was found to be 0.311; in assay [1] (first compound 3.162 µM), 0.319; in assay [1] (first compound 10 µM), 0.298; in assay [1] (first compound 100 µM), 0.311; in the assay with Axitinib + Palbociclib (first compound 0.005 µM), 0.522; with Axitinib + Palbociclib (first compound 0.01581 µM) it was 0.562. Besides, the relative viability was determined as 0.49 in the assay with Axitinib + Palbociclib (first compound 0.05 µM); 0.508 with Axitinib + Palbociclib (first compound 0.1581 µM); 0.533 with Axitinib + Palbociclib (first compound 0.5 µM); 1.27 with Axitinib + Navitoclax (first compound 0.005 µM); 1.12 with Axitinib + Navitoclax (first compound 0.01581 µM); 1.16 with Axitinib + Navitoclax (first compound 0.05 µM). Moreover, the relative viability in the assay with Axitinib + Navitoclax (first compound 0.1581 µM) came to 1.16; with Axitinib + Navitoclax (first compound 0.5 µM), 1.27; with Bemcentinib + AZD7762 (first compound 0.04 µM) it was 1.14; with Bemcentinib + AZD7762 (first compound 0.1265 µM) it was 1.11; with Bemcentinib + AZD7762 (first compound 0.4 µM) it was 1.14; with Bemcentinib + AZD7762 (first compound 1.265 µM) it was 1.02. Moreover, the relative viability in the assay with Bemcentinib + AZD7762 (first compound 4 µM) was determined as 1.06.
Turning to EPLC-272H, the relative viability in assay [1] (first compound 1 µM) was determined as 0.236; in assay [1] (first compound 3.162 µM), 0.344; in assay [1] (first compound 10 µM), 0.324; in assay [1] (first compound 31.62 µM), 0.279; in assay [1] (first compound 100 µM) it was 0.379; in the assay with Axitinib + Palbociclib (first compound 0.005 µM), 0.294. Further, the relative viability amounted to 0.369 with Axitinib + Palbociclib (first compound 0.01581 µM); 0.336 with Axitinib + Palbociclib (first compound 0.05 µM); 0.354 in the assay with Axitinib + Palbociclib (first compound 0.1581 µM); 0.309 with Axitinib + Palbociclib (first compound 0.5 µM); 1.19 with Axitinib + Navitoclax (first compound 0.005 µM); 1.11 with Axitinib + Navitoclax (first compound 0.01581 µM). Also, the relative viability turned out to be 1.09 with Axitinib + Navitoclax (first compound 0.05 µM); 1.18 with Axitinib + Navitoclax (first compound 0.1581 µM); 1.09 in the assay with Axitinib + Navitoclax (first compound 0.5 µM); 0.236 in the assay with Bemcentinib + AZD7762 (first compound 0.04 µM); 0.162 in the assay with Bemcentinib + AZD7762 (first compound 0.1265 µM); 0.186 with Bemcentinib + AZD7762 (first compound 0.4 µM). Further, the figures for the relative viability in the assay with Bemcentinib + AZD7762 (first compound 1.265 µM) and in the assay with Bemcentinib + AZD7762 (first compound 4 µM) were 0.168 and 0.197, respectively.
In the case of H3255, the relative viability in assay [1] (first compound 1 µM) came to 0.29; in assay [1] (first compound 3.162 µM), 0.344; in assay [1] (first compound 10 µM) it was 0.308; in assay [1] (first compound 31.62 µM), 0.32; in assay [1] (first compound 100 µM) it was 0.274; in the assay with Axitinib + Palbociclib (first compound 0.005 µM), 0.332. Further, the relative viability in the assay with Axitinib + Palbociclib (first compound 0.01581 µM) came to 0.294; with Axitinib + Palbociclib (first compound 0.05 µM), 0.316; with Axitinib + Palbociclib (first compound 0.1581 µM) it was 0.334; with Axitinib + Palbociclib (first compound 0.5 µM) it was 0.329; in the assay with Axitinib + Navitoclax (first compound 0.005 µM), 0.617; with Axitinib + Navitoclax (first compound 0.01581 µM) it was 0.377. Besides, the relative viability came to 0.354 with Axitinib + Navitoclax (first compound 0.05 µM); 0.476 in the assay with Axitinib + Navitoclax (first compound 0.1581 µM); 0.561 in the assay with Axitinib + Navitoclax (first compound 0.5 µM); 0.814 with Bemcentinib + AZD7762 (first compound 0.04 µM); 0.887 in the assay with Bemcentinib + AZD7762 (first compound 0.1265 µM); 0.874 with Bemcentinib + AZD7762 (first compound 0.4 µM). The values for the relative viability in the assay with Bemcentinib + AZD7762 (first compound 1.265 µM) and with Bemcentinib + AZD7762 (first compound 4 µM) were 0.773 and 0.839, respectively.
